Test results reported in ChEMBL document CHEMBL3991601, “The target landscape of clinical kinase drugs” (Science, 2017).
Active and inactive are the calls of the source. Cut-off read from the data, not from the text of the source, for most assays here: actives have a measured Kd and inactives only a lower limit.

Legend:
[1] = molecular target: T1, Glycogen phosphorylase, liver form (Homo sapiens, UniProt P06737); assay type: subcellular, K-562, COLO 205, SK-N-BE(2) and MV-4-11, Cell lysate; conditions: read-out: Kd apparent
T1 sequence (P06737 whole entry): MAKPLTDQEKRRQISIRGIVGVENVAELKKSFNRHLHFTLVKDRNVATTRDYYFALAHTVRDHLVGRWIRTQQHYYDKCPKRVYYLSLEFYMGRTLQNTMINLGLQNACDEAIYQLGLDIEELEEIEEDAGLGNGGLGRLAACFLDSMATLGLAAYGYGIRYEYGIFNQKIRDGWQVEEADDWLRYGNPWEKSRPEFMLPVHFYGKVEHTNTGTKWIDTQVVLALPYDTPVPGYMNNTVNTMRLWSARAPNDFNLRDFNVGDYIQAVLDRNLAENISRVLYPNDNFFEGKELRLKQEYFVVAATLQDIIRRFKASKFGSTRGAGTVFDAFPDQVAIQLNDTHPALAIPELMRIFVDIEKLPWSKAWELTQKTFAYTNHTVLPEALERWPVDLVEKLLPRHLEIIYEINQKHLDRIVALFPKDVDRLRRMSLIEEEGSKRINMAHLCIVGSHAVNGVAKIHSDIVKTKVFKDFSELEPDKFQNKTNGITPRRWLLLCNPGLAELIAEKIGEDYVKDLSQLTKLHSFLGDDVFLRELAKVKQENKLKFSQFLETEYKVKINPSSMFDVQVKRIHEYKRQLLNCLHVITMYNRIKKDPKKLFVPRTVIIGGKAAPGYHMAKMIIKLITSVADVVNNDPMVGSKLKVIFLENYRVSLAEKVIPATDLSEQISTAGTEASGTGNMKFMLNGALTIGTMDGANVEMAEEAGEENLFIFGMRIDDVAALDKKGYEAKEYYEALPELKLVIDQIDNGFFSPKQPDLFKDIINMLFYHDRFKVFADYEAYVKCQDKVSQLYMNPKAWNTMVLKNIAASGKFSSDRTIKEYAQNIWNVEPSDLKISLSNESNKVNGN

[2] = molecular target: T2, NUAK family SNF1-like kinase 2 (Homo sapiens, UniProt Q9H093)
T2 sequence (Q9H093 whole entry): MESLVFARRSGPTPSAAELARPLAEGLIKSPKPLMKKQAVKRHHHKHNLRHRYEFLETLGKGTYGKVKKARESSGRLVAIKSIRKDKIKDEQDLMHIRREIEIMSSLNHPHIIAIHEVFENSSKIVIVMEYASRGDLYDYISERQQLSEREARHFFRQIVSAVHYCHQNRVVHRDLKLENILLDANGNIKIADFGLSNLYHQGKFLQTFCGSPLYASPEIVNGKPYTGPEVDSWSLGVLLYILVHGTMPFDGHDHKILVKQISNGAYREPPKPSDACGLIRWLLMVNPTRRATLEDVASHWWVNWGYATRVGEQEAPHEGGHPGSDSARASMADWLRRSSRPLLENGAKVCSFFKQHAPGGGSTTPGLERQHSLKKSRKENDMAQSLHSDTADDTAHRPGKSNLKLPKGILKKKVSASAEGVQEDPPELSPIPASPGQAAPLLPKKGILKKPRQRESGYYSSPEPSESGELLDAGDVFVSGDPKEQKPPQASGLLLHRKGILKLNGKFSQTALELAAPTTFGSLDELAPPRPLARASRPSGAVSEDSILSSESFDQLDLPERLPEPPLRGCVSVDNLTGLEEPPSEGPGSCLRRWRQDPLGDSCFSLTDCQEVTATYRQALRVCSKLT

[3] = molecular target: T3, Phosphorylase b kinase gamma catalytic chain, liver/testis isoform (Homo sapiens, UniProt P15735)
T3 sequence (P15735 whole entry): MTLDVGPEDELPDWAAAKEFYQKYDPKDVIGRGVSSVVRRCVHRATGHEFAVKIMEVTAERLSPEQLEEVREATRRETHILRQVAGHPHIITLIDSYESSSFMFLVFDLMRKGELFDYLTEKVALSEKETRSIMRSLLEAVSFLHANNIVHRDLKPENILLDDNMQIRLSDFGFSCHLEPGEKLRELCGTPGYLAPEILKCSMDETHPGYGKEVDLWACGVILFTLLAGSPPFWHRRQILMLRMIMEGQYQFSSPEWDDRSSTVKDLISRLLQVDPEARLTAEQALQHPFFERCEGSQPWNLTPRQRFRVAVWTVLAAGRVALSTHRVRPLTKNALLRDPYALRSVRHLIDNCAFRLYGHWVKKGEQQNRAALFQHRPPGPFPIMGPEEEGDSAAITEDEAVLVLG

[4] = molecular target: T4, Serine/threonine-protein kinase D2 (Homo sapiens, UniProt Q9BZL6)
T4 sequence (Q9BZL6 whole entry): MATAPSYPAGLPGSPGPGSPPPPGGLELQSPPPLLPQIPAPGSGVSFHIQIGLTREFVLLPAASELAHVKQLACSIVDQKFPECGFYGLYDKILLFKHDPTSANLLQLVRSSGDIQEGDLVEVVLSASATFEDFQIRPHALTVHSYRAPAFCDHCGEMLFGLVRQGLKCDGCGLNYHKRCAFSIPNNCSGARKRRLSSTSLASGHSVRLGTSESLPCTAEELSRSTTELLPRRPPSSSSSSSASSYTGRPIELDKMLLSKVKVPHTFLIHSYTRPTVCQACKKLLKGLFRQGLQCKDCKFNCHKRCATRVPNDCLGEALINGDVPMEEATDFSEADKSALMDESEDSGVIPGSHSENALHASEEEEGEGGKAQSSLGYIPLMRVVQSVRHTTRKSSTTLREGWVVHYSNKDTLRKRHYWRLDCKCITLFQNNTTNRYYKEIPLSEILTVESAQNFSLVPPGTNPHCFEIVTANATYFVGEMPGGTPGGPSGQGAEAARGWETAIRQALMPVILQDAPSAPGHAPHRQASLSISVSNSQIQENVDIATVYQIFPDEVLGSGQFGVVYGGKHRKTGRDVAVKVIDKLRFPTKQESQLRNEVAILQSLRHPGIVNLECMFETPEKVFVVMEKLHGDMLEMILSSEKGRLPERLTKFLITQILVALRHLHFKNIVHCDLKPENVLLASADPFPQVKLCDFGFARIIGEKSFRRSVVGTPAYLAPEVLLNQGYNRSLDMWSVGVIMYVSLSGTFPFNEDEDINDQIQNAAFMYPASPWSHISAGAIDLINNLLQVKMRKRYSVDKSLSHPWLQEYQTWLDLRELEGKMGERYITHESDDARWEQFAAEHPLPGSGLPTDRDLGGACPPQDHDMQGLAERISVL

Focal adhesion kinase 1 = Focal adhesion kinase 1 (Homo sapiens, UniProt Q05397)
Sequence of Focal adhesion kinase 1 (Q05397 whole entry): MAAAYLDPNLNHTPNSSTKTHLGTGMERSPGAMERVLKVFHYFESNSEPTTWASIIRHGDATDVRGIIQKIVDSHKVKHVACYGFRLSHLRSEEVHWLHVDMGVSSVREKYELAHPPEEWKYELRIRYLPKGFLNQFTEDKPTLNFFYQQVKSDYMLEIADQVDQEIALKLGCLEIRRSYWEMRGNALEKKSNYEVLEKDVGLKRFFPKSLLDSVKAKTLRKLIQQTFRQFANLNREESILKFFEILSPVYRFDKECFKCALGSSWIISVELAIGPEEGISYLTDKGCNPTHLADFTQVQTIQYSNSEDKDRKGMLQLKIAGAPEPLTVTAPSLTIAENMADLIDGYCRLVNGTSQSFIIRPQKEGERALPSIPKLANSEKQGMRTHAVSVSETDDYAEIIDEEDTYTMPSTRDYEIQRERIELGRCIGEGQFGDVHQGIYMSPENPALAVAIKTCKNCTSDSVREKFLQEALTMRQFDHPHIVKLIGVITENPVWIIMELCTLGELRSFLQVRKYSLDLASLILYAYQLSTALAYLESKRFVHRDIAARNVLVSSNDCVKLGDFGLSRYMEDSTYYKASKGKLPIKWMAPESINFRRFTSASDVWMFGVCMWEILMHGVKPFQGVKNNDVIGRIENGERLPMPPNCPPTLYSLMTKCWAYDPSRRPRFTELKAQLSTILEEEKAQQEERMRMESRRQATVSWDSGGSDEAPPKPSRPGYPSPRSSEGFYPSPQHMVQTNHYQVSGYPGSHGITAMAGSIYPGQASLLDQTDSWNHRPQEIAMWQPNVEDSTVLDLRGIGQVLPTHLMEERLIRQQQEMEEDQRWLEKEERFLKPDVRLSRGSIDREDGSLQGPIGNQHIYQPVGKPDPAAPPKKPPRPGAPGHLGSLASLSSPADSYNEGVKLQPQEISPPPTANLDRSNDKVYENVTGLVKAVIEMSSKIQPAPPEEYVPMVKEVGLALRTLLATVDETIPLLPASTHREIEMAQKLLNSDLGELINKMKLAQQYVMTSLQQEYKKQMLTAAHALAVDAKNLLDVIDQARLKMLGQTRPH

[5] = molecular target: Serine/threonine-protein kinase 16 (Homo sapiens, UniProt O75716)
Sequence of Serine/threonine-protein kinase 16 (O75716 whole entry): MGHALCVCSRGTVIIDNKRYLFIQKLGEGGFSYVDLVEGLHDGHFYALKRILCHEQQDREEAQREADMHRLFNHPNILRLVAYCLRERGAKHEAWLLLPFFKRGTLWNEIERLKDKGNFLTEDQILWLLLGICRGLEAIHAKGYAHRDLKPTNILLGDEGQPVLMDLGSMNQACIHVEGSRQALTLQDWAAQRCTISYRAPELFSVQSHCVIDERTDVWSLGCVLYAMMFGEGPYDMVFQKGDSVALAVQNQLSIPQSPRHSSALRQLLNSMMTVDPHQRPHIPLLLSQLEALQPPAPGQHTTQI

Wee1-like protein kinase = Wee1-like protein kinase (Homo sapiens, UniProt P30291)
Sequence of Wee1-like protein kinase (P30291 whole entry): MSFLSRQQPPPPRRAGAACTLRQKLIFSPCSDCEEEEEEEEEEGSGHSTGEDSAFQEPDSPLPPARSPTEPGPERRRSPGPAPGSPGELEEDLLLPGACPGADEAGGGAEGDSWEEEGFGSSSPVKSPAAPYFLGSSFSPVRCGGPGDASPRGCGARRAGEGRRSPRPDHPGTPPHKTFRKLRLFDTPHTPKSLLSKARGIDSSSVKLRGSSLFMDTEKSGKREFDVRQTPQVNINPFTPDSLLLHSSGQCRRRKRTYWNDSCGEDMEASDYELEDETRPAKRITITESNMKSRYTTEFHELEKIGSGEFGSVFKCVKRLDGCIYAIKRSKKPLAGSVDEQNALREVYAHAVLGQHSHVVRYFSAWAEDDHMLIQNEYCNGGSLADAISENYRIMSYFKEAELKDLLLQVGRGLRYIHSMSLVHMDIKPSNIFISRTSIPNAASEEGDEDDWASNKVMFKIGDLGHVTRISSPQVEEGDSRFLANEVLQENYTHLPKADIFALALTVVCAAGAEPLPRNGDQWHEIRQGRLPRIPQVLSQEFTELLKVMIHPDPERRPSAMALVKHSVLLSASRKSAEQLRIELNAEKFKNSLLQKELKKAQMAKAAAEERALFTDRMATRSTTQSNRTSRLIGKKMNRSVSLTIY
Note: in the data inactive means no Kd found up to 30 µM.

Row | Kd [1] | Kd [2] | Kd [3] | Kd [4] | Kd (Focal adhesion kinase 1) | Kd [5] | Kd (Wee1-like protein kinase) | Compound
1 | > 30 µM (inactive) | > 30 µM (inactive) | > 30 µM (inactive) | > 30 µM (inactive) | > 30 µM (inactive) | 1.87 µM (active) | > 30 µM (inactive) | C1=C/COCc2cc(ccc2OCCN2CCCC2)Nc2nccc(n2)-c2cccc(c2)COC/1 [PACRITINIB]
2 | > 30 µM (inactive) | > 30 µM (inactive) | > 30 µM (inactive) | > 30 µM (inactive) | > 30 µM (inactive) | > 30 µM (inactive) | > 30 µM (inactive) | CNC(=O)c1cc(Oc2ccc(NC(=O)Nc3ccc(Cl)c(C(F)(F)F)c3)c(F)c2)ccn1 [REGORAFENIB]
3 | > 30 µM (inactive) | > 30 µM (inactive) | > 30 µM (inactive) | 25 µM (active) | > 30 µM (inactive) | > 30 µM (inactive) | > 30 µM (inactive) | CN(C)C(=O)c1cc2cnc(Nc3ccc(N4CCNCC4)cn3)nc2n1C1CCCC1 [RIBOCICLIB]
4 | > 30 µM (inactive) | > 30 µM (inactive) | > 30 µM (inactive) | > 30 µM (inactive) | > 30 µM (inactive) | > 30 µM (inactive) | > 30 µM (inactive) | COc1cc(OC)c(/C=C/S(=O)(=O)Cc2ccc(OC)c(NCC(=O)O)c2)c(OC)c1 [RIGOSERTIB]
5 | > 30 µM (inactive) | > 30 µM (inactive) | > 30 µM (inactive) | > 30 µM (inactive) | > 30 µM (inactive) | > 30 µM (inactive) | > 30 µM (inactive) | CN1CCC(CNc2ccc3ncc(-c4cccc(OC(F)(F)F)c4)n3n2)CC1 [SGI-1776]
6 | > 30 µM (inactive) | > 30 µM (inactive) | > 30 µM (inactive) | > 30 µM (inactive) | > 30 µM (inactive) | > 30 µM (inactive) | > 30 µM (inactive) | COc1cc2nccc(Oc3ccc(NC(=O)Nc4cc(C)on4)c(Cl)c3)c2cc1OC [TIVOZANIB]
7 | > 30 µM (inactive) | > 30 µM (inactive) | > 30 µM (inactive) | > 30 µM (inactive) | > 30 µM (inactive) | > 30 µM (inactive) | > 30 µM (inactive) | CC(=O)Nc1cccc(-n2c(=O)n(C3CC3)c(=O)c3c(Nc4ccc(I)cc4F)n(C)c(=O)c(C)c32)c1 [TRAMETINIB]
8 | > 30 µM (inactive) | > 30 µM (inactive) | > 30 µM (inactive) | > 30 µM (inactive) | > 30 µM (inactive) | > 30 µM (inactive) | > 30 µM (inactive) | CN1N=C(N)c2cn([C@@H]3O[C@H](COP(=O)(O)O)[C@@H](O)[C@H]3O)c3ncnc1c23 [TRICIRIBINE PHOSPHATE]
9 | > 30 µM (inactive) | > 30 µM (inactive) | > 30 µM (inactive) | 6.34 µM (active) | > 30 µM (inactive) | > 30 µM (inactive) | > 30 µM (inactive) | CC(C)Nc1cc(-c2c[nH]c(C(=O)N[C@H](CO)c3cccc(Cl)c3)c2)c(Cl)cn1 [ULIXERTINIB]

Continued, molecule first:

Row | Compound | Kd [1] | Kd [2] | Kd [3] | Kd [4] | Kd (Focal adhesion kinase 1) | Kd [5] | Kd (Wee1-like protein kinase)
10 | Cc1ccc(-n2nc(C(C)(C)C)cc2NC(=O)NCc2cc(F)ccc2Oc2ccc3c(cnn3CCO)c2)cc1 [PEXMETINIB] | > 30 µM (inactive) | > 30 µM (inactive) | > 30 µM (inactive) | > 30 µM (inactive) | > 30 µM (inactive) | > 30 µM (inactive) | > 30 µM (inactive)
11 | CNC(=O)c1ccc(C)c(-n2c(C)cc(OCc3ccc(F)cc3F)c(Br)c2=O)c1 [PH-797804] | > 30 µM (inactive) | > 30 µM (inactive) | > 30 µM (inactive) | > 30 µM (inactive) | > 30 µM (inactive) | > 30 µM (inactive) | > 30 µM (inactive)
12 | C=CC(=O)N1CCC(Oc2cc3c(Nc4ccc(Cl)c(Cl)c4F)ncnc3cc2OC)CC1 [POZIOTINIB] | > 30 µM (inactive) | > 30 µM (inactive) | > 30 µM (inactive) | > 30 µM (inactive) | > 30 µM (inactive) | > 30 µM (inactive) | > 30 µM (inactive)
13 | CNC(=O)CN1CCC(Oc2cc3c(Nc4cccc(Cl)c4F)ncnc3cc2OC)CC1 [SAPITINIB] | > 30 µM (inactive) | > 30 µM (inactive) | > 30 µM (inactive) | > 30 µM (inactive) | > 30 µM (inactive) | > 30 µM (inactive) | > 30 µM (inactive)
14 | C[C@@H](c1ccc2nccn2c1)n1nnc2ncc(-c3cnn(C)c3)nc21 [SAVOLITINIB] | > 30 µM (inactive) | > 30 µM (inactive) | > 30 µM (inactive) | > 30 µM (inactive) | > 30 µM (inactive) | > 30 µM (inactive) | > 30 µM (inactive)
15 | C[C@@H]1CN(Cc2ccc(F)cc2)[C@@H](C)CN1C(=O)c1cc2c(C(=O)C(=O)N(C)C)cn(C)c2cc1Cl [TALMAPIMOD] | > 30 µM (inactive) | > 30 µM (inactive) | > 30 µM (inactive) | > 30 µM (inactive) | > 30 µM (inactive) | > 30 µM (inactive) | > 30 µM (inactive)
16 | CN1CCC(COc2cnc(-c3cccc(Cn4nc(-c5cccc(C#N)c5)ccc4=O)c3)nc2)CC1 [TEPOTINIB] | > 30 µM (inactive) | > 30 µM (inactive) | > 30 µM (inactive) | > 30 µM (inactive) | > 30 µM (inactive) | > 30 µM (inactive) | > 30 µM (inactive)
17 | O=c1sn(-c2cccc3ccccc23)c(=O)n1Cc1ccccc1 [TIDEGLUSIB] | > 30 µM (inactive) | > 30 µM (inactive) | > 30 µM (inactive) | > 30 µM (inactive) | > 30 µM (inactive) | > 30 µM (inactive) | > 30 µM (inactive)
